pIC50: −log10 of the molar value.
How the values were obtained:
[1] = molecular target: T1, Brd4 bromodomain (Homo sapiens, UniProt O60885); experiment: Alpha-screen enzyme assay (bromodomain binding to acetylated histone peptide); details: for pIC50 / inhibitory activity against Brd4 bromodomain (in words): alpha-screen assay; for pIC50: inhibition of bromodomain binding activity, calculated with Prism6;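 for all read-outs here: AlphaScreen proximity readout pairing streptavidin donor beads with anti-GST acceptor beads, with hits checked against bead interference using a TruHit control kit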
T1 construct: glutathione-S-transferase (GST) and His-tagged bromodomain; made in house
Protocol: Bromodomain was prepared as previously described. […] Streptavidin-coated donor beads and anti-GST alpha-screen acceptor beads were added under low-light condition. […] The alpha-screen results were confirmed by using alpha-screen TruHit kits (PerkinElmer, USA).

[2] = tested on: Ty82 cells; experiment: Cell cytotoxic assay in Ty82 cells; type: cell-based; details: Homo sapiens; for CC50: Ty82 cell cytotoxic activity, 72 h; for pIC50: TY82, cell cytotoxic activity (Table 4 head prints IC50)
Protocol: For the viability experiments, Ty82 cells were seeded in 96-well plates at 30% confluency and exposed to chemicals the next day. After 72 h, WST-1 reagent was added, and absorbance at 450 nm was measured by using a Spectramax spectrophotometer (Molecular Devices, San Jose, CA, USA) in accordance with the manufacturer’s instructions. The CC50 values were calculated by using GraphPad Prism version 5 for Windows. The curves were fitted using a nonlinear regression model with a log (inhibitor) versus response formula.

Row | SMILES | pIC50 [1] | melting point [°C] | increase in activity compared with 8ae ([1]; Brd4 IC50 ratio) | CC50 [2] [µM] | inhibitory activity against Brd4 bromodomain (in words) [1] | pIC50 [2]
1 | COc1cccc2c1Oc1c(OC)ccc3c1C(=C2)N(C)C3=O [Compound 8aa, 5,7-Dimethoxy-1-methylbenzo[6,7]oxepino[4,3,2-cd]isoindol-2(1H)-one] | 6.08 | 208 to 210 |  |  |  | 
2 | CCOc1c(OC)ccc2c1Oc1c(OC)ccc3c1C(=C2)N(C)C3=O [Compound 8ab, 7-Ethoxy-5,8-dimethoxy-1-methylbenzo[6,7]oxepino[4,3,2-cd]isoindol-2(1H)-one] | 6.07 |  | four-fold increased activity |  |  | 
3 | COc1ccc(CCOc2c(OC)ccc3c2Oc2c(OC)ccc4c2C(=C3)N(C)C4=O)cc1 [Compound 8ac, 5,8-Dimethoxy-7-(4-methoxyphenethoxy)-1-methylbenzo[6,7]oxepino[4,3,2-cd]isoindol-2(1H)-one] | 5.43 |  |  | > 20 |  | 
4 | COc1ccc2c(c1OCCCOc1ccccc1)Oc1c(OC)ccc3c1C(=C2)N(C)C3=O [Compound 8ad, 5,8-Dimethoxy-1-methyl-7-(3-phenoxypropoxy)benzo[6,7]oxepino[4,3,2-cd]isoindol-2(1H)-one] | 5.15 | 189 to 191 |  | > 4 |  | 
5 | CCOc1ccc2c3c1Oc1c(ccc(OC)c1OC)C=C3N(C)C2=O [Compound 8ae, 5-Ethoxy-7,8-dimethoxy-1-methylbenzo[6,7]oxepino[4,3,2-cd]isoindol-2(1H)-one] | 5.38 | 219 to 220 |  |  | slightly increased the inhibitory activity compared with 8af | 
6 | CCOc1ccc2c3c1Oc1c(ccc(OC)c1OCCc1ccc(OC)cc1)C=C3N(C)C2=O [Compound 8af, 5-Ethoxy-8-methoxy-7-(4-methoxyphenethoxy)-1-methylbenzo[6,7]oxepino[4,3,2-cd]isoindol-2(1H)-one] | 5.27 | 189 to 191 |  | > 4 | weak inhibitory effect | 
7 | COc1ccc2c3c1Oc1ccc(OCC(C)C)cc1C=C3N(C)C2=O [Compound 8ba, 9-Isobutoxy-5-methoxy-1-methylbenzo[6,7]oxepino[4,3,2-cd]isoindol-2(1H)-one] | 4.78 |  |  |  |  | 
8 | COc1ccc2c3c1Oc1ccc(C(F)(F)F)cc1C=C3N(C)C2=O [Compound 8bb, 5-Methoxy-1-methyl-9-(trifluoromethyl)benzo[6,7]oxepino[4,3,2-cd]isoindol-2(1H)-one] | < 4.49 |  |  | > 20 | no inhibitory activity | 
9 | COc1ccc2c3c1Oc1ccc(O)cc1C=C3N(C)C2=O [Compound 8bd, 9-Hydroxy-5-methoxy-1-methylbenzo[6,7]oxepino[4,3,2-cd]isoindol-2(1H)-one] | 6.39 | 177 to 179 |  | 0.54 |  | 
10 | CCN(CC)CCOc1ccc2c(c1)C=C1c3c(ccc(OC)c3O2)C(=O)N1C [Compound 8be, 9-(2-(Diethylamino)ethoxy)-5-methoxy-1-methylbenzo[6,7]oxepino[4,3,2-cd]isoindol-2(1H)-one] | 6.07 | 174 to 176 |  | 0.56 |  | 
11 | COc1ccc2c3c1Oc1ccc(OCc4ccccn4)cc1C=C3N(C)C2=O [Compound 8bf, 5-Methoxy-1-methyl-9-(pyridine-2-ylmethoxy)benzo[6,7]oxepino[4,3,2-cd]isoindol-2(1H)-one] | 6.04 | 176 to 178 |  | 0.23 |  | 
12 | COc1ccc2c3c1Oc1ccc(OCc4ccccc4)cc1C=C3N(C)C2=O [Compound 8bg, 9-Benzyloxy-5-methoxy-1-methylbenzo[6,7]oxepino[4,3,2-cd]isoindol-2(1H)-one] | < 4.49 | 187 to 189 |  |  | did not | 
13 | COc1ccc2c3c1Oc1cc4c(cc1C=C3N(C)C2=O)OCO4 [Compound 8bh, 5-Methoxy-1-methyl-[1,3]dioxolo[4”,5”.4′,5′]benzo[1′,2′:6,7]oxepino[4,3,2-cd]isoindol-2(1H)-one] | 4.95 | 237 to 239 |  | 2.16 | modest inhibition | 
14 | CCOc1ccc2c3c1Oc1ccc(OCC(C)C)cc1C=C3N(C)C2=O [Compound 8bi, 9-Isobutoxy-5-ethoxy-1-methylbenzo[6,7]oxepino[4,3,2-cd]isoindol-2(1H)-one] | < 5.00 | 178 to 180 |  |  |  | 
15 | CCOc1ccc2c3c1Oc1ccc(C(F)(F)F)cc1C=C3N(C)C2=O [Compound 8bj, 5-Ethoxy-1-methyl-9-(trifluoromethyl)benzo[6,7]oxepino[4,3,2-cd]isoindol-2(1H)-one] | < 5.05 | 230 to 232 |  | > 20 |  | 
16 | CCOc1ccc2c3c1Oc1ccc(O)cc1C=C3N(C)C2=O [Compound 8bl, 5-Ethoxy-9-hydroxy-1-methylbenzo[6,7]oxepino[4,3,2-cd]isoindol-2(1H)-one] | 5.95 |  |  | 0.31 |  | 
17 | CCOc1ccc2c3c1Oc1ccc(OCCN(CC)CC)cc1C=C3N(C)C2=O [Compound 8bm, 9-(2-(Diethylamino)ethoxy)-5-ethoxy-1-methylbenzo[6,7]oxepino[4,3,2-cd]isoindol-2(1H)-one] | 6.04 | 169 to 171 |  | 0.66 |  | 
18 | CCOc1ccc2c3c1Oc1ccc(OCc4ccccn4)cc1C=C3N(C)C2=O [Compound 8bn, 5-Ethoxy-1-methyl-9-(pyridine-2-ylmethoxy)benzo[6,7]oxepino[4,3,2-cd]isoindol-2(1H)-one] | 6.17 | 188 to 190 |  | 0.36 |  | 
19 | CCOc1ccc2c3c1Oc1ccc(OCc4ccccc4)cc1C=C3N(C)C2=O [Compound 8bo] |  | 198 to 200 |  |  |  | 
20 | CCOc1ccc2c3c1Oc1cc4c(cc1C=C3N(C)C2=O)OCO4 [Compound 8bp, 5-Ethoxy-1-methyl-[1,3]dioxolo[4”,5”.4′,5′]benzo[1′,2′:6,7]oxepino[4,3,2-cd]isoindol-2(1H)-one] | 5.54 | 207 to 209 |  | 3.81 | modest inhibition | 
21 | CCN(CC)c1ccc2c3c1Oc1ccc(O)cc1C=C3N(C)C2=O [Compound 8cb, 5-(Diethylamino)-9-hydroxy-1-methylbenzo[6,7]oxepino[4,3,2-cd]isoindol-2(1H)-one] | 5.31 | 181 to 183 |  | 8 | weaker inhibitory effects than 8bd and 8bl | 
22 | CCN(CC)c1ccc2c3c1Oc1ccc(O)cc1CC3N(C)C2=O (centres unmarked) [Compound 8cc, 5-(Diethylamino)-9-hydroxy-1-methyl-11,11a-dihydrobenzo[6,7]oxepino[4,3,2-cd]isoindol-2(1H)-one] | 5.23 | 165 to 167 |  | 10 |  | 
23 | CCN(CC)c1ccc2c3c1Oc1ccc(OCc4ccccc4)cc1C=C3N(C)C2=O [Compound 8cd, 9-(Benzyloxy)-5-(diethylamino)-1-methylbenzo[6,7]oxepino[4,3,2-cd]isoindol-2(1H)-one] | < 4.49 | 185 to 188 |  | > 20 |  | 
24 | CCN(CC)c1ccc2c3c1Oc1cc4c(cc1C=C3N(C)C2=O)OCO4 [Compound 8ce, 5-(Diethylamino)-1-methyl-[1,3]dioxolo[4”,5”.4′,5′]benzo[1′,2′:6,7]oxepino[4,3,2-cd]isoindol-2(1H)-one] | 5.14 | 199 to 201 |  | 10 |  | 
25 | CCCc1ccc2c3c1Oc1ccc(OCC(C)C)cc1C=C3N(C)C2=O [Compound 8da, 9-Isobutoxy-1-methyl-5-propylbenzo[6,7]oxepino[4,3,2-cd]isoindol-2(1H)-one] | 5.18 | 196 to 199 |  |  |  | 5.00
26 | CCCc1ccc2c3c1Oc1ccc(C(F)(F)F)cc1C=C3N(C)C2=O [Compound 8db, 1-Methyl-5-propyl-9-(trifluoromethyl)benzo[6,7]oxepino[4,3,2-cd]isoindol-2(1H)-one] | < 4.49 | 239 to 241 |  |  |  | < 4.70
27 | CCCc1ccc2c3c1Oc1ccc(OCc4ccccn4)cc1C=C3N(C)C2=O [Compound 8dc, 1-Methyl-5-propyl-9-(pyridine-2-ylmethoxy)benzo[6,7]oxepino[4,3,2-cd]isoindol-2(1H)-one] | 5.86 |  |  |  |  | 5.75
28 | CCCc1ccc2c3c1Oc1ccc(OCc4ccccc4)cc1C=C3N(C)C2=O [Compound 8dd, 9-(Benzyloxy)-1-methyl-5-propylbenzo[6,7]oxepino[4,3,2-cd]isoindol-2(1H)-one] | 5.05 | 203 to 205 |  |  |  | 5.00
29 | CCCc1ccc2c3c1Oc1cc4c(cc1C=C3N(C)C2=O)OCO4 [Compound 8de, 1-methyl-5-propyl-[1,3]dioxolo[4”,5”.4′,5′]benzo[1′,2′:6,7]oxepino[4,3,2-cd]isoindol-2(1H)-one] | 5.57 | 257 to 259 |  |  |  | 5.35
30 | Cc1ccc2c3c1Oc1ccc(C(F)(F)F)cc1C=C3N(C)C2=O [Compound 8df, 1,5-Dimethyl-9-(trifluoromethyl)benzo[6,7]oxepino[4,3,2-cd]isoindol-2(1H)-one] | < 4.49 | 227 to 229 |  |  |  | 

— paper PMC8002823, “Synthesis and Structure–Activity Relationships of Aristoyagonine Derivatives as Brd4 Bromodomain Inhibitors with X-ray Co-Crystal Research” (Molecules, 2021)
